According to patent publication US11547681B2, “N-acylethanolamide derivatives and uses thereof” (ELIEM THERAPEUTICS, INC., priority 2016, dated 2023):
“Also recorded” adds a separate entry of the source. One block for each compound: values may come before it.

Key:
[1] = Simulated gastric fluid (SGF) stability, with and without pepsin; assay type: in vitro ADME; settings: pH 1.2, 2 μM
Procedure: Studies were carried out in simulated gastric fluid (SGF). SGF was prepared by dissolving 2.0 g of NaCl and 3.2 g of purified pepsin (derived from porcine stomach mucosa) in 7 mL of 10 N HCl and sufficient water to make 1000 mL. The pH was adjusted to pH 1.2. Control experiments were also run without the addition of pepsin to the matrix. The test article was added into the SGF at 37° C. at a final concentration of 2 μM, and incubated in a shaking water bath at 37° C. Individual tubes were dosed for each time point (0, 15, 30, 60, and 120 minutes). At the appropriate time, 500 μL of ice-cold acetonitrile containing 0.1% formic acid and internal standard was added to a single tube. The starting time of each tube was staggered so that all timepoints finished simultaneously. The samples were then mixed and centrifuged. Calibration standards were prepared in matched matrix. […] Analytical conditions are outlined in Appendix 4-1.

[2] = Microsome/S9 fraction control (reaction mixture without microsomal proteins); assay type: in vitro ADME; settings: for Concentration of analyte I-9: dosed I-9 2 μM
Procedure: As a control for the liver microsome and intestinal S9 fraction studies, additional experiments were run in reaction mixture, with the exclusion of microsomal proteins. The reaction mixture was prepared as described below. […] Individual tubes were dosed for each time point (0, 10, 20, 30, and 60 minutes). At the appropriate time, 500 μL of ice-cold acetonitrile containing 0.1% formic acid and internal standard was added to a single tube. The starting time of each tube was staggered so that all timepoints finished simultaneously. […] Calibration standards were prepared in matched matrix. […] Analytical conditions are outlined in Appendix 4-1.

[3] = Simulated gastric fluid (SGF) stability, with and without pepsin; assay type: in vitro ADME; settings: for Concentration of analyte I-9: dosed I-9 2 μM
[4] = PEA levels in New Zealand White rabbit plasma samples after oral administration; assay type: in vivo; settings: individual rabbits, predose
[5] = Stability of PEA-prodrug in Sprague-Dawley rat plasma and acidified rat plasma (90 minutes, ice or RT); assay type: in vitro ADME; settings: 1 μg/mL
Procedure: The stability of the PEA-prodrug I-9 was assessed in Sprague-Dawley rat plasma containing sodium heparin as the anticoagulant, and in acidified rat plasma containing citric acid and formic acid. The acidified plasma was prepared by collecting Sprague-Dawley rat […] over sodium heparin and adding 100 μL of 0.5 M citric acid per mL of blood. The blood was centrifuged to generate plasma, and then 100 μL of 10% formic acid was added per mL of plasma.
PEA-prodrug was added to each matrix to a final concentration of 1 μg/mL. Triplicate aliquots (50 μL) were immediately collected and added to 150 μL of acetonitrile containing internal standard. The remaining plasma aliquots were split equally. One aliquot was allowed to stand at room temperature while the second was placed on ice. After ninety minutes, triplicate aliquots of each sample were collected and added to acetonitrile. The samples were centrifuged at 13000 rpm for ten minutes, and the resulting supernatant was analyzed using the developed LC-MS/MS method. The peak area response ratios (PARR) of the analyte and internal standard from the incubated samples were then compared to the initial sample to determine the percent PEA prodrug remaining.

[6] = PEA levels in New Zealand White rabbit plasma samples after oral administration; assay type: in vivo; settings: individual rabbits; Group 3, 32 mg/kg/day; total PEA, ~5 h after morning dosing; listed as PEA-prodrug
Description: The present Example describes PEA levels observed in rabbit plasma samples after oral administration of compound(s) provided herein. Blood samples were taken approximately five hours after the morning dosing.
Plasma samples from the current study were not treated to prolong the post-collection stability of the prodrug. Instead, all samples were allowed to stand, thawed and untreated, at room temperature for four hours prior to extraction and analysis. This strategy allowed for any remaining prodrug in the sample to convert to PEA. All reported concentrations are total PEA in the sample.
Seventy-nine New Zealand White rabbit plasma samples were analyzed with a previously developed LC-MS/MS method for the detection of palmitoylethanolamide (PEA). A total of 79 plasma samples were received for analysis. All samples were received frozen in good condition. Samples were stored at −80° C. until analysis.
An LC-MS/MS method for the determination of PEA in plasma was used to quantify samples in this study. See, e.g., Example 3. Study samples were extracted using the methods described in Examples 3-5.

[7] = system: Sprague Dawley rats, carrageenan-induced thermal hyperalgesia; assay: Carrageenan-induced inflammatory model, thermal hyperalgesia testing; assay type: in vivo, Sprague Dawley rat
Procedure: Sixty male Sprague Dawley rats were used in this study. Baseline thermal hyperalgesia thresholds were determined on day -1; animals were divided into 6 groups based on baseline thermal hyperalgesia thresholds. On day 0, animals received an oral dose of vehicle or I-16. Approximately 30 minutes after dosing the animals received an intra-plantar injection of 2% carrageenan solution. The animals were assessed for thermal hyperalgesia approximately 4 and approximately 24 hours after carrageenan injection.
Thermal hyperalgesia was assessed at baseline (prior to dosing with either vehicle or I-16), 4 hours, and 24 hours post-carrageenan injection.
Mean±SEM ipsilateral paw withdrawal latencies following carrageenan injection in vehicle and I-16 treated animals during the pharmacological assessment period (day 0).

- % Remaining of Initial (n = 1) ([1]; SGF w/o pepsin, 30 min): 84%
- % Remaining of Initial (n = 1) ([1]; SGF w/o pepsin, 120 min): 71%
- % Remaining of Initial (n = 1) ([1]; SGF w/pepsin, 0 min): 100%
- % Remaining of Initial (n = 1) ([1]; SGF w/pepsin, 15 min): 95%
- % Remaining of Initial (n = 1) ([1]; SGF w/pepsin, 60 min): 92%
- half-life at 2 μM ([1]; simulated gastric fluid without pepsin, SGF w/o pepsin): > 2 h
- Concentration of analyte I-9 ([2]; 0 min): 2240 nM
- Concentration of analyte I-9 ([2]; 10 min): 1470 nM
- Concentration of analyte I-9 ([2]; 20 min): 1720 nM
- Concentration of analyte I-9 ([2]; 30 min): 1500 nM
- Concentration of analyte I-9 ([2]; 60 min): 1380 nM
- half-life at 2 μM ([2]; microsome/S9 reaction mixture without microsomal proteins, no microsomal proteins, pH 7.4, 2 μM): > 1 h
- % Remaining of Initial (n = 1) ([2]; no microsomal proteins, pH 7.4, 2 μM, 0 min): 100%
- % Remaining of Initial (n = 1) ([2]; no microsomal proteins, pH 7.4, 2 μM, 10 min): 66%
- % Remaining of Initial (n = 1) ([2]; no microsomal proteins, pH 7.4, 2 μM, 20 min): 77%
- % Remaining of Initial (n = 1) ([2]; no microsomal proteins, pH 7.4, 2 μM, 30 min): 67%
- % Remaining of Initial (n = 1) ([2]; no microsomal proteins, pH 7.4, 2 μM, 60 min): 62%
- % Remaining of Initial (n = 1) ([3]; SGF w/o pepsin, pH 1.2, 2 μM, 0 min): 100%
- % Remaining of Initial (n = 1) ([3]; SGF w/o pepsin, pH 1.2, 2 μM, 15 min): 93%
- % Remaining of Initial (n = 1) ([3]; SGF w/o pepsin, pH 1.2, 2 μM, 60 min): 72%
- % Remaining of Initial (n = 1) ([3]; SGF w/pepsin, pH 1.2, 2 μM, 30 min): 80%
- % Remaining of Initial (n = 1) ([3]; SGF w/pepsin, pH 1.2, 2 μM, 120 min): 86%
- Concentration of analyte I-9 ([3]; Matrix 'Human', 0 min): 1520 nM
- Concentration of analyte I-9 ([3]; Matrix 'Human', head 10 min): 1450 nM
- Concentration of analyte I-9 ([3]; Matrix 'Human', head 20 min): 1210 nM
- Concentration of analyte I-9 ([3]; Matrix 'Human', head 30 min): 1400 nM
- Concentration of analyte I-9 ([3]; Matrix 'Human', head 60 min): 1310 nM
- Concentration of analyte I-9 ([3]; Matrix 'Rat', 0 min): 2070 nM
- Concentration of analyte I-9 ([3]; Matrix 'Rat', head 10 min): 1930 nM
- Concentration of analyte I-9 ([3]; Matrix 'Rat', head 20 min): 1740 nM
- Concentration of analyte I-9 ([3]; Matrix 'Rat', head 30 min): 1490 nM
- Concentration of analyte I-9 ([3]; Matrix 'Rat', head 60 min): 1480 nM
- half-life at 2 μM ([3]; pig, simulated gastric fluid with pepsin, SGF w/pepsin, pH 1.2, 2 μM): > 2 h
- % Remaining ([5]; acidified rat plasma (citric and formic acid), RT): 96.0%
- % Remaining ([5]; acidified rat plasma (citric and formic acid), ice): 107%
- % Remaining ([5]; rat plasma (sodium heparin), RT): 0.203%
- % Remaining ([5]; rat plasma (sodium heparin), ice): 73.4%
Compound: CCCCCCCCCCCCCCCC(=O)NCCOC(=O)CCC(=O)OCC(O)CO (stereo not shown) [Compound I-9]
- PEA concentration in plasma, Day −3 ([4]; Group 3, 32 mg/kg/day): BLOQ (below the limit of quantitation (2.5 ng/mL))
- PEA concentration in plasma, Day −5 ([4]; Group 3, 32 mg/kg/day): BLOQ (below the limit of quantitation (2.5 ng/mL))
- PEA concentration in plasma, Day −3 ([4]; Group 4, 160 mg/kg/day): BLOQ (below the limit of quantitation (2.5 ng/mL))
- PEA concentration in plasma, Day −5 ([4]; Group 4, 160 mg/kg/day): BLOQ (below the limit of quantitation (2.5 ng/mL))
- PEA concentration in plasma, Day 7 [6]: BLOQ (below the limit of quantitation (2.5 ng/mL))

Compound: CCCCCCCCCCCCCCCC(=O)NCCOC(=O)CCC(=O)OC(COC(=O)CCC)COC(=O)CCC [Compound I-16]
- effect on thermal hyperalgesia induced by carrageenan ([7]; I-16 10.25 mg/kg PO (5 mg/kg equivalents of PEA), any time point (4 and 24 hours)): did not significantly reduce; also recorded: no significant effect
- effect on thermal hyperalgesia induced by carrageenan ([7]; I-16 20.50 mg/kg PO, 4-hour time point, 20.5 mg/kg): significantly reduced thermal hyperalgesia; also recorded: significantly reducing thermal hyperalgesia
- effect on thermal hyperalgesia induced by carrageenan ([7]; I-16 20.50 mg/kg PO, 24-hour time point): did not significantly reduce thermal hyperalgesia
- overall effect on thermal hyperalgesia ([7]; I-16 10.25 and 20.50 mg/kg PO): dose- and time-dependent reduction of thermal hyperalgesia
